Experiment [1] concerns synthetic vesicles of sizes 100 nm and 400 nm. Kind of experiment: Cosedimentation assay of MARCKS-ED with synthetic vesicles. The format is binding. The source says: (§1) In another exemplary method, lipid vesicles were employed to the curvature-sensing behavior of the MARCKS derived peptides with various sizes and lipid components. The membrane curvature is defined as the reciprocal of the diameter of a particular particle, e.g., smaller-sized vesicles present highly curved membrane bilayers. A series of lipid models were made to represent various lipid components that closely resemble the lipid composition of biological membranes. […] Dynamic light scattering (DLS) and negative-stain transmission electron microscopy (TEM) were performed to confirm the different vesicle sizes following the pressure-controlled extrusion process through different membrane diameter pores. Commercial polystyrene beads were used as the calibration standard for the vesicle size validation experiments. Furthermore, a time-course experiment was carried out to confirm the stability of the vesicles up to 16 hours. Three different membrane diameters were extruded for the following biophysical characterizations: 30 nm, 100 nm, 400 nm, reflecting different membrane curvatures.
In another exemplary method, a cosedimentation assay was performed to test the size differentiation behavior of MARCKS-ED. Two vesicle pore sizes, 100 and 400 nm, were used in this experiment because vesicles smaller than 100 nm were difficult to pellet even at high centrifugation speed. MARCKS-ED (10 μM) was incubated with 600 μM synthetic vesicles of sizes 100 nm and 400 nm. The positive control was the intact C2A-C2B cytoplasmic domains (C2AB) of rat Synaptotamin-1 (a.a. 96-421). C2AB (1.5 μM) was treated with CaCl2 (1 mM) and incubated with 300 μM synthetic vesicles of sizes 100 nm and 400 nm. C2AB treated with vesicles was incubated at room temperature for 30 minutes, followed by centrifugation of 65,000 rpm for 45 minutes at 20° C. MARCKS-ED treated with vesicles was incubated at room temperature for 2 hours, followed by 75,000 rpm for 45 minutes at 20° C. […]

The next experiment deals with microvesicles in plasma. Kind of experiment: Nanoparticle tracking analysis of microvesicles in plasma from stressed rats treated with MARCKS peptides. Particulars: Alexa Fluor 546 labeled peptides 55 nM. Type of experiment: binding, rat. On the procedure: These isolated microvesicles were measured by nanoparticle tracking analysis (NTA) to confirm their average size (ø=56 nm). Tracking analyses were performed using the NanoSight LM10-HS instrument (Amesbury, UK) equipped with a 532 nm laser and observed at scatter and fluorescence modes (filter=550 nm). The instrument was calibrated using commercially available 50 nm polystyrene beads. […] Alexa Fluor 546™-labeled mouse anti-rat CD63 and unconjugated Alexa Fluor 546™ were used as positive and negative controls, respectively. The profiles of MARCKS-ED-Alexa Fluor 546™ and Alexa Fluor 546™ in the absence of microvesicles were also investigated to confirm that these show negligible scatter and fluorescence background signals under identical NTA conditions.
FIG. 5A represents fluorescence enhancement assay with MARCKS-ED incubated with the isolated microvesicles. Peptide MARCKS-ED ([…]) not treated with microvesicles was used as a negative control. Annexin-V (a positive control) and MARCKS-ED were incubated with the isolated rat microvesicles. Fluorescence was normalized to the negative control. […] The diameter size and particle count of the isolated microvesicles detected by MARCKS-ED was further quantified. Nanoparticle tracking analysis (NTA) uses a laser for scatter and fluorescence modes to track small particles by Brownian motion, providing a robust method for detecting nano-sized microvesicles. Under the fluorescence mode with the emission filter set for the Alexa Fluor 546™, the particles that bound to MARCKS-ED, MARCKSmut1, and MARCKSmut2peptides were observed.
FIG. 5B illustrates the results of NTA of microvesicles treated with MARCKS derived peptides. […] The untreated plasma samples were detected using the scatter mode and treated samples were monitored by tracking the fluorescence of Alexa Fluor 546™ conjugated to the MARCKS-ED MARCKSmut1 and MARCKSmut2 peptides. […] Furthermore, blank samples were performed to rule out possible artifacts of background fluorescence from the peptides, the vesicles and the unconjugated dye.

A further experiment relates to isolated microvesicles. Kind of experiment: Fluorescence enhancement with isolated rat microvesicles. The format is binding. The procedure:
In another exemplary method, having established the simultaneous curvature- and PS-sensing by MARCKS-ED in synthetic liposomes, MARCKS-ED was tested on detection of highly curved, PS-enriched particles in a complex biological system. Microvesicles (ø=0.03-1 μm) are highly curved lipid vesicles that shed into body fluids (e.g., blood, urine, ascitic fluid). These vesicles are released by cancerous cells in which lipid asymmetry is de-regulated, contributing to externalization and enrichment of PS on their outer leaflet. The microvesicle detecting ability of MARCKS-ED was investigated using plasma samples from a stressed rat model. […]
Microvesicles in these samples were characterized by TEM imaging, and ELISA of detection of the signature CD63 protein and the membrane transport protein Rab5b exposed on the surface. Particles expressing both proteins were captured by antibodies and quantified in a colorimetric endpoint assay.
These isolated microvesicles were measured by nanoparticle tracking analysis (NTA) to confirm their average size (ø=56 nm). Tracking analyses were performed using the NanoSight LM10-HS instrument (Amesbury, UK) equipped with a 532 nm laser and observed at scatter and fluorescence modes (filter=550 nm). […]
Monitored at λex=295 nm, Annexin-V (0.32 μM) was treated with CaCl2 (3 mM) in TES buffer and with 500 μM lipid vesicles of varying PS content. […]

The subject of another experiment is synthetic lipid vesicles. Kind of experiment: Fluorescence enhancement assay of NBD-labeled MARCKS peptides with synthetic vesicles. The format is binding.
Excerpt: as §1
Next, a fluorescence enhancement assay was conducted to further quantify the curvature- and PS-sensing behavior of MARCKS-ED. Appropriate controls were performed to confirm that the fluorophore alone had no effect on the observed fluorescence enhancement (data not shown). FIG. 4 represents histogram data of fluorescence enhancement assay with and fluorescence anisotropy titration of the NBD labeled MARCKS derived peptides. Upon binding to lipid vesicles, the fluorescence intensity of NBD-MARCKS-ED increased due to vesicle binding and changes in the hydrophobic environment surrounding the fluorophore, concurring with a slight blue shift of the maximum emission wavelength. The emission spectra of all NBD-labeled peptides were recorded using a Fluorolog-3 fluorometer with λex=480 nm. The peptides and protein were tested at a concentration of 500 nM in PBS (pH 7.40) treated with 500 μM synthetic vesicles of different vesicles sizes. […] The positive control C2AB (200 nM) from the rat Synaptotagmin-1 (Syn-1) protein (G374, residues 96-421) was treated with CaCl2 (2.5 mM) and observed with λex of 275 nm and emission range of 300-450 nm. The untreated peptide and Ca^2+-C2AB samples were corrected by the PBS (pH=7.40) blank solution for the peptides and PBS with Ca^2+ for the Ca^2+-C2AB sample. All samples were prepared and incubated overnight in 4° C.
FIG. 4A illustrates a histogram plot of fluorescence intensity of MARCKS-ED treated with lipid vesicles of various sizes. […] Last, the fluorescence intensity differences were less significant with vesicles containing no PS. […]

The values below come from patent US20150093333A1, “COMPOSITIONS, METHODS AND USES FOR PEPTIDES IN DIAGNOSIS, PROGRESSION AND TREATMENT OF CANCERS” (THE REGENTS OF THE UNIVERSITY OF COLORADO, body corporate, priority 2003, published 2015).

Consider KKKKKRFSFKKSFKLSGFSFKKNKK [MARCKS-ED], for which the “pull-down by lipid vesicles without PS” value in experiment [1] is “less MARCKS-ED was pulled down”. For the same sequence, the “pull-down by 100 nm vs 400 nm PS-containing vesicles” value in experiment [1] (gel electrophoresis of supernatant and pellet) is recorded as “binds more tightly to highly curved vesicles containing PS”. Besides, the “binding to microvesicles in whole plasma (NTA fluorescence mode)” value in the experiment with microvesicles in plasma is listed as “selectively bind to small-sized microvesicles in whole plasma”. Also, the “binding to isolated microvesicles (fluorescence enhancement)” value with isolated microvesicles is “demonstrated to bind to these biological particles”. For the same sequence, the “reversal of binding by CaM” value in the experiment on synthetic lipid vesicles (addition of CaM) was “could be partially reversed”. In addition, the “fluorescence intensity increase, 30 nm vs 400 nm vesicles” value with synthetic lipid vesicles (peptide 500 nM, 500 μM vesicles containing PS) is listed as “approximately 1.5 fold”.
